Each structure is given as a SMILES string.

One assay concerns LP-1 cells. Put plainly: Antiproliferative activity on LP-1 cells (CellTiter-Glo). It counts as cell-based. The conditions noted are these: Homo sapiens, 72 hr treatment, averaged values. On the procedure: (§1) Determination of Antiproliferative Activity on LP-1, L-363 and JJN-3 Cells
(§2) All compounds tested were dissolved in DMSO and further dilutions were made in culture medium. Final DMSO concentration was 0.3% (v/v) in cell proliferation assays. Viability was assessed using CellTiter-Glo cell viability assay kit (Promega). The human LP-1, L-363 and JJN-3 cells (DSMZ) were cultured in RPMI 1640 medium supplemented with 2 mM L-glutamine, and 10% fetal calf serum (PAA). Cells were routinely kept as suspension cells at 37° C. in a humidified 5% CO2 atmosphere. Cells were passaged at a seeding density of 0.2×10^6/ml twice a week. Cells were seeded in black tissue culture treated 96-well plates (Perkin Elmer). Densities used for plating ranged from 2,000 to 6,000 cells per well in a total volume of 75 μl medium. After twenty four hours, drugs and/or solvents were added (25 μl) to a final volume of 100 μl. Following 72 hr of treatment plates were removed from the incubator and allowed to equilibrate to room temperature for approx 10 min. 100 μl CellTiter-Glo reagent was added to each well that was then covered (Perkin Elmer Topseal) and shaken on plate shaker for 10 min. Luminescence was measured on a HTS Topcount (Perkin Elmer). Within an experiment, the results for each treatment were the mean of 2 replicate wells. For initial screening purposes, compounds were tested using a 9 point dilution curve (serial 1:3 dilutions). For each experiment, controls (containing no drug) and a blank incubation (containing cells read at the time of compound addition) were run in parallel. The blank value was subtracted from all control and sample values. For each sample, the mean value for cell growth (in relative light units) was expressed as a percentage of the mean value for cell growth of the control.
On the technique in general: Cellular ATP, detected with luciferase, serves as a proxy for viable cell number.

Another assay has as its system L-363 cells. Put plainly: Antiproliferative activity on L-363 cells (CellTiter-Glo). The format is cell-based. To be noted: Homo sapiens, 72 hr treatment, averaged values. On the procedure: as §1, §2
In assay [1] the target is Recombinant Human NF-kappaB-Inducing Kinase (NIK/MAP3K14) (Homo sapiens (Human), UniProt Q99558). Put plainly: Inhibition of auto-phosphorylation of recombinant human NIK/MAP3K14 activity (AlphaScreen). The format is biochemical. The conditions noted are these: GST-tagged NIK/MAP3K14 0.2 nM, 25 microM ATP, 1 h at 25° C.; averaged over all measurements on all batches; read-out: Alpha-Screen IC50. As to the method:
Inhibition of Auto-Phosphorylation of Recombinant Human NF-kappaB-Inducing Kinase (NIK/MAP3K14) Activity (AlphaScreen®)
NIK/MAP3K14 auto-phosphorylation activity was measured using the AlphaScreen® (αscreen) format (Perkin Elmer). All compounds tested were dissolved in dimethyl sulfoxide (DMSO) and further dilutions were made in assay buffer. Final DMSO concentration was 1% (v/v) in assays. Assay buffer was 50 mM Tris pH 7.5 containing 1 mM EGTA (ethylene glycol tetraacetic acid), 1 mM DTT (dithiothreitol), 0.1 mM Na3VO4, 5 mM MgCl2, 0.01% Tween® 20. Assays were carried out in 384 well Alphaplates (Perkin Elmer). Incubations consisted of compound, 25 microM Adenosine-5′-triphosphate (ATP), and 0.2 nM NIK/MAP3K14. Incubations were initiated by addition of GST-tagged NIK/MAP3K14 enzyme, carried out for 1 h at 25° C. and terminated by addition of stop buffer containing anti-phospho-IKK Ser176/180 antibody. Protein A Acceptor and Glutathione-Donor beads were added before reading using an EnVision® Multilabel Plate Reader (Perkin Elmer). Signal obtained in the wells containing blank samples was subtracted from all other wells and IC50's were determined by fitting a sigmoidal curve to % inhibition of control versus Log10 compound concentration.
In general terms: Alpha assays give light when donor and acceptor beads are brought close together.

Another assay has as its system JJN-3 cells. In words: Antiproliferative activity on JJN-3 cells (CellTiter-Glo). To be noted: Homo sapiens, 72 hr treatment, averaged values. It counts as cell-based. As to the method:
as §1, §2

Assay [2] relates to P-IKKα levels in L363 cells. Put plainly: Effect of compounds on P-IKKα levels in L363 cells. The format is cell-based. To be noted: Homo sapiens, L-363, BAFF stimulated, 2 hr treatment, Mesoscale sandwich immuno-assay, averaged values, read-out: IKKα Cellular IC50. As to the method:
Effect of Compounds on P-IKKα Levels in L363 Cells
All compounds tested were dissolved in DMSO and further dilutions were made in culture medium. Final DMSO concentration was 1% (v/v) in cell assays. The human L363 cells (ATCC) were cultured in RPMI 1640 medium supplemented with GlutaMax and 10% fetal calf serum (PAA). Cells were routinely maintained at densities of 0.2×10^6 cells per ml—1×10^6 cells per ml at 37° C. in a humidified 5% CO2 atmosphere. Cells were passaged twice a week splitting back to obtain the low density. Cells were seeded in 96 well plates (Nunc 167008) at 2×10^6 per ml media in a volume of 75 μl per well plus 25 μl 1 μg/ml recombinant human B-cell activating factor (BAFF/BLyS/TNFSF13B). Seeded cells were incubated at 37° C. in a humidified 5% CO2 atmosphere for 24 hr. Drugs and/or solvents were added (20 μl) to a final volume of 120 μl. Following 2 hr treatment plates were removed from the incubator and cell lysis was achieved by the addition of 30 μl 5× lysis buffer followed by shaking on a plate shaker at 4° C. for 10 min. At the end of this incubation lysed cells were centrifuged at 800×g for 20 min at 4° C. and the lysate was assessed for P-IKKα levels by sandwich immuno-assay carried out in anti-rabbit antibody coated Mesoscale plates. Within an experiment, the results for each treatment were the mean of 2 replicate wells. […]

Chain of Recombinant Human NF-kappaB-Inducing Kinase (NIK/MAP3K14) (Q99558 whole entry): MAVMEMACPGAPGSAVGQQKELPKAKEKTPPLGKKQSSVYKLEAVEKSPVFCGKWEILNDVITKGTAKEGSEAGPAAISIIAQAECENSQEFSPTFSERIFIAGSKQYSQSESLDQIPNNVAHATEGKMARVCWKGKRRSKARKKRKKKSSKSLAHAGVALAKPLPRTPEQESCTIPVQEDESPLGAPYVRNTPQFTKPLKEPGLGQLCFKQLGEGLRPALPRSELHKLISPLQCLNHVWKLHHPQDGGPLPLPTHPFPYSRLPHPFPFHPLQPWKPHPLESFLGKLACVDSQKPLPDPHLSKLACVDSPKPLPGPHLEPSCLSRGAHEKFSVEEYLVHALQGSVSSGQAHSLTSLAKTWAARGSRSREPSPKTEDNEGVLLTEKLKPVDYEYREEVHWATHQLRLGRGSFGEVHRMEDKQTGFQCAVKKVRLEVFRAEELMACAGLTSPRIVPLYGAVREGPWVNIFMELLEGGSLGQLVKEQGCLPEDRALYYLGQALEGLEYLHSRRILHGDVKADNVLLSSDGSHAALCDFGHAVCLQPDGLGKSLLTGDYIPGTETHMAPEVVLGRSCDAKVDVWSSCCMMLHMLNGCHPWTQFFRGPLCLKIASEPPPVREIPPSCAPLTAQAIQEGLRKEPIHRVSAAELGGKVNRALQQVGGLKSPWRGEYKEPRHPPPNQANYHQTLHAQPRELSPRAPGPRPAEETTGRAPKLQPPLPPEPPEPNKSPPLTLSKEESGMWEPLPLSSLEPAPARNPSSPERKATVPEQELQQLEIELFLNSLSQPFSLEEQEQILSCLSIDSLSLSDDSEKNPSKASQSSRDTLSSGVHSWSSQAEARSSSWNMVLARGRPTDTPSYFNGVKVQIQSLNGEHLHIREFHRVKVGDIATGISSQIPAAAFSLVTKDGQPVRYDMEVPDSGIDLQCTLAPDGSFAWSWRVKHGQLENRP

In the case of `CCn1cc2nc(N)nc(-c3cn(C4CN(C5CC5)C4)c4cnc(C#CC(C)(O)C5CC5)cc34)c2n1` (stereo not shown) [Compound 10], the EC50 (as a rule, the concentration that produces a half-maximal response) in the assay on LP-1 cells was 788 nM; with L-363 cells it was 241 nM; in the assay with JJN-3 cells it was 406 nM. In assay [1], the IC50 (as a rule, the concentration needed to halve the response being measured) was 186 nM.
The corresponding values for `[2H]C([2H])([2H])C(O)(C#Cc1cc2c(-c3nc(N)nc4cn(CC)nc34)cn(CCCOC)c2cc1F)C([2H])([2H])[2H]` [Compound 4] are 244 nM, 69 nM, 102 nM and 65 nM.
The corresponding values for `[2H]C([2H])([2H])C(O)(C#Cc1cc2c(-c3nc(N)nc4cn(CC)nc34)cn(C3CN(CC4CC4)C3)c2cc1F)C([2H])([2H])[2H]` [Compound 7] are 202 nM, 53 nM, 95 nM and 60 nM.
The corresponding values for `COCCCn1cc(-c2nc(N)nc3cn(C4CC4)nc23)c2cc(C#CC(C)(O)C3CC3)ncc21` (stereo not shown) [Compound 8] are 402 nM, 76 nM, 78 nM and 38 nM.
Consider `COCCCn1cc(-c2nc(N)nc3cn(C)nc23)c2cc(C#CC(C)(C)O)ncc21` [Compound 1], for which the EC50 in the assay with LP-1 cells was 6780 nM; in the assay with L-363 cells, 655 nM; in the assay on JJN-3 cells it was 538 nM. The IC50 in assay [1] is 46 nM.
Take `[2H]C([2H])([2H])C(O)(C#Cc1cc2c(-c3nc(N)nc4cn(CC)nc34)cn(C3CCN(CC)C3)c2cc1F)C([2H])([2H])[2H]` (stereo not shown) [Compound 6]: the figures for the EC50 in the assay with LP-1 cells, in the assay with L-363 cells and in the assay on JJN-3 cells were 70 nM, 38 nM and 40 nM, respectively. The half-inhibitory concentration (IC50) in assay [1] turned out to be 37 nM.
The corresponding values for `[2H]C([2H])([2H])n1cc2nc(N)nc(-c3cn(C4CCN(CC)C4)c4cc(F)c(C#CC(O)(C([2H])([2H])[2H])C([2H])([2H])[2H])cc34)c2n1` (stereo not shown) [Compound 5] are 128 nM, 52 nM, 46 nM and 112 nM.
The corresponding values for `CCn1cc2nc(N)nc(-c3cn(CCCOC)c4cnc(C#CC(C)(O)C5CC5)cc34)c2n1` (stereo not shown) [Compound 9] are 629 nM, 162 nM, 217 nM and 52 nM.
As for `COCCCn1cc(-c2nc(N)nc3cn(C)nc23)c2cc(C#CC(C)(O)C3CC3)ncc21` (stereo not shown) [Compound 2], the EC50 with LP-1 cells is 2960 nM; in the assay on L-363 cells, 386 nM; in the assay on JJN-3 cells, 358 nM. In addition, the figures for the half-maximal inhibitory concentration (IC50) in assay [1] and in assay [2] were 23 nM and 103 nM, respectively.
In the case of `[2H]C([2H])([2H])C(O)(C#Cc1cc2c(-c3nc(N)nc4cn(CC)nc34)cn(C3CN(C4CC4)C3)c2cn1)C([2H])([2H])[2H]` [Compound 12], the EC50 in the assay on LP-1 cells amounted to 877 nM; with L-363 cells, 140 nM; with JJN-3 cells it was 301 nM. In addition, the IC50 in assay [1] was 84 nM.
The corresponding values for `CCn1cc2nc(N)nc(-c3cn(CCCOC)c4cc(F)c(C#CC(C)(O)C5CC5)cc34)c2n1` (stereo not shown) [Compound 3] are 845 nM, 246 nM, 182 nM and 992 nM.
With `[2H]C([2H])([2H])C(O)(C#Cc1cc2c(-c3nc(N)nc4cn(CC)nc34)cn(C3CN(CC4CC4)C3)c2cn1)C([2H])([2H])[2H]` [Compound 11], the concentration for a half-maximal effect (EC50) in the assay with LP-1 cells is 1180 nM; with L-363 cells, 62 nM; with JJN-3 cells, 158 nM. The IC50 in assay [1] amounted to 143 nM.
